Marks after values point to notes of the source that are not given here.
Key:
[1] = test system: CD8+ T cells; experiment: CFSE flow cytometry proliferation assay, Concanavalin A-stimulated splenocytes, CD8+ T cells; format: cell-based, mice; settings: 100 mg ABA/kg diet; first 4 generations
Description: (§1) Single cell suspensions were prepared from the spleen by gently crushing the spleens excised during the necropsy procedure between the frosted ends of microscope glass slides previously autoclaved. Tissue debris were removed by settling, erythrocytes were eliminated by hypotonic lysis and cells finally resuspended in complete RPMI (cRPMI, 10% fetal bovine serum (Hyclone, Logan, Utah), 25 mM HEPES buffer (Sigma, St. Louis, Mo.), 100 units/ml penicillin (Sigma), […] streptomycin (Sigma), 1 mM sodium pyruvate (Sigma), 1 mM nonessential aminoacids (Sigma), and 2 mM essential amino acids (Mediatech), and enumerated with a Coulter Z1 Single Particle Counter (Beckman Coulter, Miami, Fla.). […]
(§2) Splenocytes at 10^6 cells/ml were seeded in 96-well, round-bottom microtiter plates and incubated incomplete RPMI with or without Concanavalin A (Sigma) at 2.5 μg/ml. […] Following 2 washes in Fluorescence activated cell sorting (FACS) buffer, cells were incubated with streptavidin-PeCy5 (Pharmingen, San Diego, Calif.) for the biotinylated anti-mouse CD4 antibody. Cells were analyzed by 3-color flow cytometry (CFSE, phycoerythrin and PeCy5) in a FACScalibur instrument (Becton Dickinson). Ten thousand events were acquired, and data were analyzed using the Cell Quest Pro™ software (Becton Dickinson). Proliferation was assessed by the decrease in fluorescent intensity of CFSE staining. […]

[2] = test system: CD4+ T cells; experiment: CFSE flow cytometry proliferation assay, Concanavalin A-stimulated splenocytes, CD4+ T cells; format: cell-based, mice; settings: 100 mg ABA/kg diet; first 2 generations
Description: as §1, §2

[3] = all studies conducted with ABA; cited from earlier work
[4] = test system: CTLA-4 on CD4+ T cells; experiment: CTLA-4 assessment in cultured CD3/CD28-stimulated splenocytes; format: cell-based, mice; settings: ABA 10 μM, 20 hr
Description: Splenocytes from wild-type mice (n=2) were isolated under sterile conditions and seeded into 96-well plates as described above. Cells were stimulated with anti-CD3 (5 μg/mL; BD Pharmingen) and anti-CD28 (1 μg/mL; BD Pharmingen) to induce proliferation and then treated with DMSO or ABA (10 μM, Sigma). Cells were then placed in a 37° C. incubator with 5% CO2 for 20 hours and immunophenotyped with anti-CD4 Alexa Fluor 700 (BD Pharmingen), anti-CD3-PE-Cy5 (BD Pharmingen), anti-CD8-PerCp-Cy5.5 (eBioscience), and'anti-CD152 (CTLA-4)-biotin (BD). Streptavidin PE-Texas Red (1 μg/mL; BD Pharmingen) was used as a secondary antibody. Flow results were computed with a BD LSR II flow cytometer and data analyses was performed with FACS Diva software (BD).

[5] = biological target: T1, PPAR γ (Mus musculus, UniProt P37238); settings: ABA 12.5 μM, rosiglitazone 1 μM; previously found (ref 48); cited from earlier work
T1 construct: expressed in transfected cells; host or cells: 3T3-L1 pre-adipocytes (ATCC)
T1 sequence (P37238 1-505): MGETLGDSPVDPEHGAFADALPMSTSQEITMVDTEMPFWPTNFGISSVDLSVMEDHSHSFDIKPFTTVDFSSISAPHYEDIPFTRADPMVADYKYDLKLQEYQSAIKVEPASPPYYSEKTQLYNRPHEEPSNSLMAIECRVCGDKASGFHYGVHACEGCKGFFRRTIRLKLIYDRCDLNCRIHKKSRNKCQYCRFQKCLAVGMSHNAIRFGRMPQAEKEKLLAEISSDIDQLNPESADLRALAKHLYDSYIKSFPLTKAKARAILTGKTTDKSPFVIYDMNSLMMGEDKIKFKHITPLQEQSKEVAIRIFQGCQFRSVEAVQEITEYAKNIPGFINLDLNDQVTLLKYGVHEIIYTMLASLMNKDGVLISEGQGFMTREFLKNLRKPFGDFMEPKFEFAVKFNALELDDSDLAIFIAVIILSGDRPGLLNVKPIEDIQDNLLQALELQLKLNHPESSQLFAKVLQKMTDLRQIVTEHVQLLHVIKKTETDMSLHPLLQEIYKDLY

[6] = test system: immune cell populations in blood and MLN; experiment: Immunophenotyping of blood and mesenteric lymph nodes by flow cytometry after DSS challenge; format: in vivo, mice
Description: MLNs were excised and crushed with frosted slides, washed with PBS, and resuspended in PBS and enumerated with a Coulter Counter (Beckman Coulter, Fullerton, Calif.). MLN-derived cells (2×10^5 cells/well) or whole blood (10 μL/well) were seeded onto 96-well plates, centrifuged at 4° C. at 3000 rpm for 4 minutes, and washed with PBS containing 5% serum and 0.09% sodium azide (FACS buffer). […] For lymphocyte assessment, cells were incubated with anti-CD4-Alexa Fluor 700 (2 μg/mL; BD Pharmingen), anti-CD8-PerCp-Cy5.5 (2 μg/mL, eBioscience), CD3 PE-Cy5 (2 μg/mL; BD Pharmingen), anti-CD25-FITC (BD), anti-CTLA-4 FITC (BD), or anti-FoxP3-PE (2 μg/mL, eBioscience) as previously shown (77). Flow results were computed with a BD LSR II flow cytometer and data analyses was performed with FACS Diva software (BD).

SMILES: CC1=CC(=O)CC(C)(C)C1(O)/C=C/C(C)=C\C(=O)O (racemic) [ABA, abscisic acid]
- CD8+ T cells RPI1 [1]: 5.261*
- CD4+ T cells RPI1 [2]: 17.72
- side-effects [3]: no side-effects observed
- CTLA-4 median fluorescence intensity (MFI) on CD4+ cells [4]: increased CTLA-4 MFI
- percent of CD4+ T cells expressing CTLA-4 [4]: significantly increased
- PPAR γ transactivation, comparison of the two agonists [5]: equally effective
- CTLA-4 expression on CD4+ T cells in blood ([6]; ABA-fed wild-type mice): significantly increased
- percent of CD4+CD25+FoxP3+ regulatory T cells ([6]; MLN): significantly increased
- effect on F4/80+CD11b+ monocytes ([6]; PPAR γ-deficient (CD4cre) mice): absent
- increase of CTLA-4 expression on CD4+ T cells in blood ([6]; lack of PPAR γ (CD4cre mice)): abrogated
- F4/80+CD11b+ monocytes ([6]; wt mice, blood): significantly decreased

From patent US8367727B2, “Method of using abscisic acid to treat diseases and disorders” (priority 2006, dated 2013)
